{"source": "paper PMC10436550", "about": "“Subacute toxicity evaluations of LPM3480392 in rats, a full µ-opioid receptor biased agonist” (Frontiers in Pharmacology, 2023)", "format_in_all_cases": "in vivo, rat", "key": {"Sprague Dawley (SD) rats [1]": {"tested_on": "Sprague Dawley (SD) rats", "assay": "Mortality and clinical observation, 4-week subacute toxicity study", "conditions": "for Mild to severe increased activity, starting day: dosing phase", "procedure": "For all surviving animals, a morning and an afternoon observation every day were conducted for the moribundity and death. Daily observation was carried out once within 1 h after each dosing in dosing phase, and at least once daily in recovery phase, including mental status, food and water consumption, hair, discharge, mortality and other toxic reactions. Detailed observation was performed once every week, including appearance, movement, mental status, gland secretions, skin and mucosa color, respiration, genitals, mortality and other toxic reactions.\nThe animals found dead were recorded for the observation or death time, and weighed followed by a complete postmortem examination to explore the cause of death. All required organs and tissue as listed in the Section 2.11 and other tissues with gross lesions were performed with histopathology examination. Animals found dead which could not be examined immediately were temporarily refrigerated."}, "Sprague Dawley (SD) rats [2]": {"tested_on": "Sprague Dawley (SD) rats", "assay": "Ophthalmic examination", "conditions": "2.4 mg/kg/day; both genders; end of dosing phase and recovery phase", "procedure": "The examination was conducted on rats in control and 2.4 mg/kg/day groups at the end of dosing phase (Day 27) and at the end of recovery phase (Recovery day 27). The mydriasis (eye instillation, 1-2 drops/eye) was conducted using Mydrin-P (compound tropicamide eye drops) before examination. Binocular indirect ophthalmoscope was used to examine conjunctiva, cornea, iris, lens, anterior chamber, posterior chamber and fundus."}, "rats": {"tested_on": "rats", "assay": "Spontaneous withdrawal test in rats", "conditions": "iv 0.3 to 1.8 mg/kg/day for 30 consecutive days; data not shown", "procedure": "However, we have conducted the spontaneous withdrawal test in rats in 2019 at WCFP (data not shown in this manuscript). The rats were intravenously injected with LPM3480392 injection from 0.3 to 1.8 mg/kg/day for 30 consecutive days. […] There were no apparent abnormalities in body weights of female rats in LPM3480392 injection groups during dosing and recovery phases. The effects of LPM3480392 on body weight in males or females in the spontaneous withdrawal test are similar to those in the subacute toxicity study in rats."}}, "data": [{"smiles": "Fc1ccc([C@]2(CCNCc3cccc(Cl)c3)CCO[C@]3(CCOC3)C2)nc1", "note": "[LPM3480392]", "values": [{"measurement": "Mild to severe increased activity, starting day", "setting": "Sprague Dawley (SD) rats [1]; 0.6 mg/kg/day", "value": 7}, {"measurement": "Mild to severe increased activity, starting day", "setting": "Sprague Dawley (SD) rats [1]; 1.2 mg/kg/day", "value": 4}, {"measurement": "Increased muscle tone, incidence", "setting": "Sprague Dawley (SD) rats [1]; 1.2 mg/kg/day, first 5 days of dosing phase", "value": "33/38"}, {"measurement": "Deep respiration or rale, incidence", "setting": "Sprague Dawley (SD) rats [1]; 2.4 mg/kg/day", "value": "4/36"}, {"measurement": "Hunchback, incidence", "setting": "Sprague Dawley (SD) rats [1]; 2.4 mg/kg/day", "value": "1/36"}, {"measurement": "Piloerection, incidence", "setting": "Sprague Dawley (SD) rats [1]; 2.4 mg/kg/day", "value": "1/36"}, {"measurement": "Found dead (1 male and 1 female)", "setting": "Sprague Dawley (SD) rats [1]; 2.4 mg/kg/day, Days 3 and 15", "value": "2/30"}, {"measurement": "Decreased activity, incidence", "setting": "Sprague Dawley (SD) rats [1]; 2.4 mg/kg/day, a few time points during dosing phase", "value": "26/36"}, {"measurement": "Mild to severe increased activity, starting day", "setting": "Sprague Dawley (SD) rats [1]; 2.4 mg/kg/day", "value": 1}, {"measurement": "Increased muscle tone, incidence", "setting": "Sprague Dawley (SD) rats [1]; 2.4 mg/kg/day, mostly complete dosing phase", "value": "36/36"}, {"measurement": "Ophthalmic examination findings", "setting": "Sprague Dawley (SD) rats [2]", "value": "No abnormalities"}, {"measurement": "Physical dependence after spontaneous withdrawal", "setting": "rats", "value": "Physical dependence was induced"}, {"measurement": "Withdrawal behaviours reversed to normal, Recovery day", "setting": "rats", "value": 6}]}]}
